# Source: patent publication EP1066315B1 (University of Dundee, priority 1998, dated 2008)
# “Also recorded” adds a separate entry of the source. Residues, ends and D or L forms follow the SMILES beside them. *: point of attachment. Fmoc = O=C(OCC1c2ccccc2-c2ccccc21)*
# How the values were obtained:
# [1] = tested on: EBV-transformed B cells / autologous TTCF-specific T cell clones; test: TTCF antigen presentation by EBV-transformed B cells, read out as proliferation of autologous T cell clones; assay type: cell-based, human
# Description: The invention will now be described by reference to the following Examples and Figures wherein • Figure 1: Processing of TTCF by a leupeptin-insensitive cysteine endopeptidase activity. (a) TTCF was digested in vitro in the presence of disrupted lysosomes (1-2 µg) in the presence or absence of iodoacetamide (1 mM), leupeptin, E64 or pepstatin (each at 0.1 mg/ml). Digestions were in 0.1 M NH4 acetate at pH 4.5 or Na2HPO4, pH 6.0 or 7.0. After 4 hours at 37°C, the reactions were separated by Tris-tricine SDS-PAGE and stained with Coomassie Blue. (b) Cleavage sites: TTCF digestion products were separated by SDS PAGE and electrophoretically transferred to nitrocellulose membrane. Individual fragments numbered 1-6 were subjected to 5 cycles of Edman degradation. N-terminal sequence obtained is shown in bold following upstream residues from TTCF (tetanus toxin numbering). The N-terminal sequence of His-tagged TTCF was obtained for fragments 1 and 3. (c) Residues Asn 1184 and Glu 1184 in TTCF were mutated to alanine (see Methods) and digestions performed as before. The mutation abolishes cleavage at the mutated site but not at the first site (doublet at 47 kD). In this experiment cleavage of the third site was minimal. • Figure 2: TTCF is processed by an asparaginyl endopeptidase. (a) Chromatography of the TTCF processing activity on Mono-S resin. Fractions eluted by NaCl gradient were incubated with the substrates Z-Ala-Ala-Asn-NHMec or Z-Phe-Arg-NHMec in the presence or absence of E64 (trans-epoxysuccinyl-L-leucylamido-(4-guanidino)butane). […] (c) Each fraction was analysed by SDS-PAGE and Western blotting. […] Release of 7-amino-4-methyl coumarin was measured after 10, 20 or 30 minutes. […] At different times the cells were washed, fixed in 0.05 % glutaraldehyde and antigen presentation measured using proliferation of different autologous TTCF-specific T cell clones. c, AEP pre-processing of TTCF speeds antigen presentation. […] Presentation was measured after 60 minutes of antigen pulsing using EBV B cells. […]
# Human B-cell AEP = test: Digestion of TTCF by human B-cell AEP in the presence of tetrapeptides; assay type: biochemical; settings: Fig 3d
# [2] = tested on: purified AEP (legumain from pig kidney); test: Digestion of TTCF with purified AEP in the presence of tetrapeptides; assay type: biochemical; settings: 0.2 mg/ml peptide; Fig 3a
# Description: The invention will now be described by reference to the following Examples and Figures wherein • Figure 1: Processing of TTCF by a leupeptin-insensitive cysteine endopeptidase activity. (a) TTCF was digested in vitro in the presence of disrupted lysosomes (1-2 µg) in the presence or absence of iodoacetamide (1 mM), leupeptin, E64 or pepstatin (each at 0.1 mg/ml). Digestions were in 0.1 M NH4 acetate at pH 4.5 or Na2HPO4, pH 6.0 or 7.0. After 4 hours at 37°C, the reactions were separated by Tris-tricine SDS-PAGE and stained with Coomassie Blue. (b) Cleavage sites: TTCF digestion products were separated by SDS PAGE and electrophoretically transferred to nitrocellulose membrane. Individual fragments numbered 1-6 were subjected to 5 cycles of Edman degradation. N-terminal sequence obtained is shown in bold following upstream residues from TTCF (tetanus toxin numbering). The N-terminal sequence of His-tagged TTCF was obtained for fragments 1 and 3. (c) Residues Asn 1184 and Glu 1184 in TTCF were mutated to alanine (see Methods) and digestions performed as before. The mutation abolishes cleavage at the mutated site but not at the first site (doublet at 47 kD). In this experiment cleavage of the third site was minimal. • Figure 2: TTCF is processed by an asparaginyl endopeptidase. (a) Chromatography of the TTCF processing activity on Mono-S resin. Fractions eluted by NaCl gradient were incubated with the substrates Z-Ala-Ala-Asn-NHMec or Z-Phe-Arg-NHMec in the presence or absence of E64 (trans-epoxysuccinyl-L-leucylamido-(4-guanidino)butane). […] (b) Fractions as above were incubated with 10 µg TTCF in the presence or absence of E64 for 4 hours at 37°C prior to SDS-PAGE analysis. (c) Each fraction was analysed by SDS-PAGE and Western blotting. Electrophoretically transferred material was probed with an affinity purified antiserum raised against the peptide KGIGSGKVLKSGPQC from human legumain^1. • Figure 3: Peptide inhibitors of AEP block asparaginyl endopeptidase activity and TTCF processing in vitro and in vivo. […] Release of 7-amino-4-methyl coumarin was measured after 10, 20 or 30 minutes. […] At different times the cells were washed, fixed in 0.05 % glutaraldehyde and antigen presentation measured using proliferation of different autologous TTCF-specific T cell clones. c, AEP pre-processing of TTCF speeds antigen presentation. […] Presentation was measured after 60 minutes of antigen pulsing using EBV B cells.
# We decided to test the possibility that high concentrations of asparagine containing peptides might act as competitive inhibitors. […] To establish that inhibition of AEP was specific, we measured the hydrolysis of different synthetic peptide substrates in the presence and absence of these tetrapeptides.
# [3] = tested on: peripheral blood mononuclear cells (PBMC) / autologous TTCF specific T cell clones; test: TTCF antigen presentation by PBMC, read out as proliferation of autologous T cell clones; assay type: cell-based, human
# Description: The invention will now be described by reference to the following Examples and Figures wherein • Figure 1: Processing of TTCF by a leupeptin-insensitive cysteine endopeptidase activity. (a) TTCF was digested in vitro in the presence of disrupted lysosomes (1-2 µg) in the presence or absence of iodoacetamide (1 mM), leupeptin, E64 or pepstatin (each at 0.1 mg/ml). Digestions were in 0.1 M NH4 acetate at pH 4.5 or Na2HPO4, pH 6.0 or 7.0. After 4 hours at 37°C, the reactions were separated by Tris-tricine SDS-PAGE and stained with Coomassie Blue. (b) Cleavage sites: TTCF digestion products were separated by SDS PAGE and electrophoretically transferred to nitrocellulose membrane. Individual fragments numbered 1-6 were subjected to 5 cycles of Edman degradation. N-terminal sequence obtained is shown in bold following upstream residues from TTCF (tetanus toxin numbering). The N-terminal sequence of His-tagged TTCF was obtained for fragments 1 and 3. (c) Residues Asn 1184 and Glu 1184 in TTCF were mutated to alanine (see Methods) and digestions performed as before. The mutation abolishes cleavage at the mutated site but not at the first site (doublet at 47 kD). In this experiment cleavage of the third site was minimal. • Figure 2: TTCF is processed by an asparaginyl endopeptidase. (a) Chromatography of the TTCF processing activity on Mono-S resin. Fractions eluted by NaCl gradient were incubated with the substrates Z-Ala-Ala-Asn-NHMec or Z-Phe-Arg-NHMec in the presence or absence of E64 (trans-epoxysuccinyl-L-leucylamido-(4-guanidino)butane). […] (b) Fractions as above were incubated with 10 µg TTCF in the presence or absence of E64 for 4 hours at 37°C prior to SDS-PAGE analysis. (c) Each fraction was analysed by SDS-PAGE and Western blotting. Electrophoretically transferred material was probed with an affinity purified antiserum raised against the peptide KGIGSGKVLKSGPQC from human legumain^1. • Figure 3: Peptide inhibitors of AEP block asparaginyl endopeptidase activity and TTCF processing in vitro and in vivo. (a) TTCF was digested with purified AEP (legumain from pig kidney) in the presence or absence of 0.2 mg/ml of the peptides indicated. […] (b) Purified AEP or a crude lysosomal protease mixture were incubated with Z-Ala-Ala-Asn-NHMec, Z-Phe-Arg-NHMec (cathepsins L&B) or Z-Val-Val-Ala NHMec (cathepsin S) in the presence of increasing concentrations of AENK or AEQK. Release of 7-amino-4-methyl coumarin was measured after 10, 20 or 30 minutes. […] At different times the cells were washed, fixed in 0.05 % glutaraldehyde and co-cultured with autologous TTCF specific T cell clones. […] Proteins obtained from commercial sources, as described in the literature or custom peptides were digested with purified pig kidney legumain at pH 5.5 in the presence of 1 mM DTT. […] When present peptide was maintained during antigen pulsing at 1 mg/ml (a) or 2 mg/ml (b). At different times the cells were washed, fixed in 0.05 % glutaraldehyde and antigen presentation measured using proliferation of different autologous TTCF-specific T cell clones. c, AEP pre-processing of TTCF speeds antigen presentation. […] Presentation was measured after 60 minutes of antigen pulsing using EBV B cells.
# If AEP plays a role in TTCF processing in antigen presenting cells then sufficiently high levels of the competing AENK peptide might be expected to interfere with normal class II MHC loading of TTCF epitopes. Following a 15 minute preincubation with or without tetrapeptides, freshly isolated peripheral blood mononuclear cells (PBMC) were incubated with TTCF antigen in the continued presence or absence of the peptides. At different times, the cells were washed, fixed and then co-cultured with different autologous T cell clones to assess expression of different peptide/MHC complexes. […] At later times there was some recovery of presentation of these epitopes as expected for a competitive inhibitor. […]
# [4] = PBMC, 1 mg/ml peptide, 30 µg/ml TTCF, after 60 minutes of antigen pulsing
structure (smiles),measurement,setting,value
"C[C@H](NC(=O)OCC1c2ccccc2-c2ccccc21)C(=O)N[C@@H](CCC(=O)O)C(=O)N[C@@H](CC(N)=O)C(=O)N[C@@H](CCCCN)C(N)=O [AENK, Ala-Glu-Asn-Lys-NH] (Fmoc-AENK-NH2)",presentation of AEP-pre-processed antigen,"[1]; EBV B cells, TTCF pre-processed with AEP, 60 minutes of antigen pulsing, Fig 9d",no longer inhibited; also recorded: did not block
same,antigen presentation by EBV-B cells,"[1]; EBV-B cells from donor, 2 mg/ml peptide, Fig 9b",blocked antigen presentation by EBV-B cells very effectively
same,inhibition of TTCF digestion by human B-cell AEP,Human B-cell AEP,inhibited
same,inhibition of processing of TTCF by AEP,[2],substantially inhibited
same,presentation to T cell clone AK 6,[3]; [4],profoundly inhibited
same,presentation to T cell clones AK 20 and AK 90,[3]; [4],undetectable
same,"presentation to other clones recognising other regions of TTCF (eg AK 111, 71 and 33)","[3]; PBMC, 1 mg/ml peptide, 30 µg/ml TTCF, Fig 3c",not affected
same,"presentation to most clones (eg AK 5, 90 & 6) at early times","[3]; PBMC, 1 mg/ml peptide, between 30 and 60 minutes of antigen pulsing, Fig 9a",undetactable
same,inhibitory effect on presentation when TTCF pre-digested in vitro by AEP is used,"[3]; TTCF pre-digested in vitro by AEP, data not shown",could be overridden
